According to patent US20220251163A1 (Sinopep-Allsino Biopharmaceutical Co., Ltd., priority 2019, published 2022):

Assays:
[1] = target: T1, mGLP-1R (Mus musculus, UniProt O35659); assay: GLP-1R agonist activity, cAMP in transfected HEK293 cells; format: cell-based
T1 construct: expressed in transfected cells; host or cells: HEK293
T1 sequence (O35659 22-463): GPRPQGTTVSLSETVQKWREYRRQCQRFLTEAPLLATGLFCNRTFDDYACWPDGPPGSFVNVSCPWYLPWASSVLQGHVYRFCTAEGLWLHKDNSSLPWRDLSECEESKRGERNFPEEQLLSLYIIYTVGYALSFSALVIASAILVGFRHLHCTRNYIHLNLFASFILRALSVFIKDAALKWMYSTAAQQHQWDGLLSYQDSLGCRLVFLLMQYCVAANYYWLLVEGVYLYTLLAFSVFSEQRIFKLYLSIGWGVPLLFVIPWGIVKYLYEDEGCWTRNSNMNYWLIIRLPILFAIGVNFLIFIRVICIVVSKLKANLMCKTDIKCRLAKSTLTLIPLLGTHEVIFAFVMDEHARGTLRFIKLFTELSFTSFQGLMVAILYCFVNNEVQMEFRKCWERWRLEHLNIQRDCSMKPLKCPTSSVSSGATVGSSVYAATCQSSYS

[2] = target: T2, mGIPR (Mus musculus, UniProt Q0P543); assay: GIPR agonist activity, cAMP in transfected HEK293 cells; format: cell-based
T2 construct: expressed in transfected cells; host or cells: HEK293
T2 sequence (Q0P543 19-460): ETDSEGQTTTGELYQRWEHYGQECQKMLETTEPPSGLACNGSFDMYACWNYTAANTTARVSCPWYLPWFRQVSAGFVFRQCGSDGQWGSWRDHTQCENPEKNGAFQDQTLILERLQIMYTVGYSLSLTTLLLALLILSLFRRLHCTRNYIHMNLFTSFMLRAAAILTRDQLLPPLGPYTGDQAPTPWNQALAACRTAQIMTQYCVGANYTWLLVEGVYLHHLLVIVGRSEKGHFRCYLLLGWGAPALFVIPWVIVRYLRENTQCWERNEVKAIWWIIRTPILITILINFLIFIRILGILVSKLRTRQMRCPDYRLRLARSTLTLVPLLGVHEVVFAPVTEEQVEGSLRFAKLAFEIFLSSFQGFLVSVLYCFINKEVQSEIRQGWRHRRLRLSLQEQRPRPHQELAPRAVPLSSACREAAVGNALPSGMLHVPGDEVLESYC
Protocol: HEK293 cells were co-transfected with cDNA encoding GLP-1R or GIPR. In a test for determining the compound, the cells were inoculated in a 96-well plate 2 h in advance, the polypeptide compound was dissolved with DMSO, and diluted to different multiples with a culture medium containing 0.1% bovine serum albumin and added to the co-transfected cells.

[3] = Effect on random weight of ob/ob mice after single subcutaneous injection; format: in vivo; conditions: 100 μg/kg single s.c., X ± s, n = 7
Protocol: The mice in each group received random blood glucose value measurement before (0 h) administration and 2, 4, 6, 10 and 24 h after administration, and then the time for measuring the random blood glucose was adjusted and prolonged to 34, 48, 58 or 72 h after administration according to the blood glucose condition of the mice in each group. Meanwhile, the random weight of the mice in each group before (0 h) administration and 24 h after administration was weighed, and then the random weight of the mice corresponding to the random blood glucose measurement condition 48 or 72 h after administration was weighed.

[4] = test system: ob/ob mice; assay: Blood glucose reducing experiment, single subcutaneous injection in ob/ob mice; format: in vivo; conditions: 100 μg/kg single s.c.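 Note: random blood glucose read at each time point, decrease rate given as percentage fall versus the model control group.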
Protocol: The mice in each group received random blood glucose value measurement before (0 h) administration and 2, 4, 6, 10 and 24 h after administration, and then the time for measuring the random blood glucose was adjusted and prolonged to 34, 48, 58 or 72 h after administration according to the blood glucose condition of the mice in each group. Meanwhile, the random weight of the mice in each group before (0 h) administration and 24 h after administration was weighed, and then the random weight of the mice corresponding to the random blood glucose measurement condition 48 or 72 h after administration was weighed. The blood glucose decrease rate, the blood glucose curve area (AUC0-24 h Glu) within 24 h after administration and the decrease rate were calculated according to the following formula.
Blood glucose decrease rate=(blood glucose in the model control group−blood glucose in the administration group)/blood glucose in the model control group×100%
BG0, BG2, BG4, BG6, BG10 and BG24 represented the blood glucose values before administration (0 h) and 2, 4, 6, 10 and 24 h after administration respectively.
AUC0-24 h Glu(mmol/Lh·r) decrease rate=(model control group AUC0-24 h Glu−administration group AUC0-24 h Glu/model control group AUC0-24 h Glu×100%
Experiments were carried out twice, at an interval of 8-10 days.

CC[C@H](C)[C@H](NC(=O)[C@H](CCCCN)NC(=O)[C@H](CC(=O)O)NC(=O)[C@H](CC(C)C)NC(=O)[C@H](C)NC(=O)[C@@H](NC(=O)[C@H](CO)NC(=O)[C@H](Cc1ccc(O)cc1)NC(=O)[C@H](CC(=O)O)NC(=O)[C@H](CO)NC(=O)[C@@H](NC(=O)[C@H](Cc1ccccc1)NC(=O)[C@@H](NC(=O)CNC(=O)[C@H](CCC(=O)O)NC(=O)[C@H](C)NC(=O)[C@@H](N)Cc1ccc(O)cc1)[C@@H](C)O)[C@@H](C)O)[C@@H](C)CC)C(=O)N[C@@H](C)C(=O)N[C@@H](CCC(N)=O)C(=O)N[C@@H](CCCCNC(=O)COCCOCCNC(=O)COCCOCCNC(=O)CC[C@H](NC(=O)CCCCCCCCCCCCCCCCC(=O)O)C(=O)O)C(=O)N[C@@H](C)C(=O)N[C@@H](Cc1ccccc1)C(=O)N[C@H](C(=O)N[C@@H](CCC(N)=O)C(=O)N[C@@H](Cc1c[nH]c2ccccc12)C(=O)N[C@@H](CC(C)C)C(=O)N[C@H](C(=O)N[C@@H](C)C(=O)NCC(=O)NCC(=O)N1CCC[C@H]1C(=O)N[C@@H](CO)C(=O)N[C@@H](CO)C(=O)NCC(=O)N[C@@H](C)C(=O)N1CCC[C@H]1C(=O)N1CCC[C@H]1C(=O)N1CCC[C@H]1C(=O)N[C@@H](CO)C(N)=O)[C@@H](C)CC)C(C)C [ID NO: 4]
EC50 [1]: 1.49 pM
EC50 [2]: 5.21 pM
Changes of random body weight at different time after administration, 0 h ([3]; 0 h): 0.0 ± 0.0 g
Random body weight at different time after administration, 0 h ([3]; 0 h): 43.6 ± 1.0 g
Changes of random body weight at different time after administration, 24 h ([3]; 24 h): -1.4 ± 0.2 g
Random body weight at different time after administration, 24 h ([3]; 24 h): 42.2 ± 1.0 g
Changes of random body weight at different time after administration, 48 h ([3]; 48 h): -0.6 ± 0.1 g
Random body weight at different time after administration, 48 h ([3]; 48 h): 42.9 ± 1.1 g
Blood glucose at different time after administration, 0 h ([4]; 0 h (before administration), X ± s, n = 7): 20.43 ± 0.68 mmol/L
Decrease rate of blood glucose at different time after administration, 2 h ([4]; 2 h): 50.0%
Blood glucose at different time after administration, 2 h ([4]; 2 h, X ± s, n = 7): 10.21 ± 1.06 mmol/L
Decrease rate of blood glucose at different time after administration, 4 h ([4]; 4 h): 51.6%
Blood glucose at different time after administration, 4 h ([4]; 4 h, X ± s, n = 7): 9.89 ± 0.83 mmol/L
Decrease rate of blood glucose at different time after administration, 6 h ([4]; 6 h): 52.9%
Blood glucose at different time after administration, 6 h ([4]; 6 h, X ± s, n = 7): 9.63 ± 0.95 mmol/L
Decrease rate of blood glucose at different time after administration, 10 h ([4]; 10 h): 51.7%
Blood glucose at different time after administration, 10 h ([4]; 10 h, X ± s, n = 7): 9.86 ± 0.96 mmol/L
Decrease rate of blood glucose at different time after administration, 24 h ([4]; 24 h): 46.1%
Blood glucose at different time after administration, 24 h ([4]; 24 h, X ± s, n = 7): 11.01 ± 0.83 mmol/L
Decrease rate of blood glucose at different time after administration, 34 h ([4]; 34 h): 28.7%
Blood glucose at different time after administration, 34 h ([4]; 34 h, X ± s, n = 7): 14.56 ± 1.42 mmol/L
Decrease rate of blood glucose at different time after administration, 48 h ([4]; 48 h): 15.2%
AUC0-24 h Glu ([4]; blood glucose curve area within 24 h, X ± s, n = 7): 255.33 ± 20.13 mmol·h/L
AUC0-24 h Glu Decrease rate ([4]; versus model control group): 50.0%
